The source made the active and inactive calls.
Experiments:
[1] = target: T1, Peroxisomal acyl-coenzyme A oxidase 1 (Homo sapiens, UniProt Q15067)
T1 sequence (Q15067 whole entry): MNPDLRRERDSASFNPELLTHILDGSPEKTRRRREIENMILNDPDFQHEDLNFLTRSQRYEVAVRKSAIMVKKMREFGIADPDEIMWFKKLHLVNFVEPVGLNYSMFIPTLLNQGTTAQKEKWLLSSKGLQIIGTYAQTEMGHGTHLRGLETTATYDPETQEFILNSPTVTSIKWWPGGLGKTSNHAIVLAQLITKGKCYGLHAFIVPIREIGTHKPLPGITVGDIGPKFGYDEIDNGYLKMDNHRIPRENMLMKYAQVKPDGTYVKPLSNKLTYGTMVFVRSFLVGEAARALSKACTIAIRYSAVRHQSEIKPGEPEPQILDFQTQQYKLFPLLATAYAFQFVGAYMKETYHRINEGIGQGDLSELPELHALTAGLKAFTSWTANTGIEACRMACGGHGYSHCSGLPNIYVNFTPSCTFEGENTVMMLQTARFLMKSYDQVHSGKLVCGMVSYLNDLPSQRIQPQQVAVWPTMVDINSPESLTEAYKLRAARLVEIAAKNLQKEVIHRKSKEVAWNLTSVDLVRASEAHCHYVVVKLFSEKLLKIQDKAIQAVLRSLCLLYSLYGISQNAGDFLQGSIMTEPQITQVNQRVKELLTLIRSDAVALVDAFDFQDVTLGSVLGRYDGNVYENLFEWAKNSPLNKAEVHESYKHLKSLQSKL

[2] = target: Calcium/calmodulin-dependent protein kinase type II subunit delta (Homo sapiens, UniProt Q13557)
[3] = target: Tyrosine-protein kinase CSK (Homo sapiens, UniProt P41240)
GTP-binding protein 4 = GTP-binding protein 4 (Homo sapiens, UniProt Q9BZE4)
[4] = target: T2, Phosphorylase b kinase gamma catalytic chain, liver/testis isoform (Homo sapiens, UniProt P15735)
T2 sequence (P15735 whole entry): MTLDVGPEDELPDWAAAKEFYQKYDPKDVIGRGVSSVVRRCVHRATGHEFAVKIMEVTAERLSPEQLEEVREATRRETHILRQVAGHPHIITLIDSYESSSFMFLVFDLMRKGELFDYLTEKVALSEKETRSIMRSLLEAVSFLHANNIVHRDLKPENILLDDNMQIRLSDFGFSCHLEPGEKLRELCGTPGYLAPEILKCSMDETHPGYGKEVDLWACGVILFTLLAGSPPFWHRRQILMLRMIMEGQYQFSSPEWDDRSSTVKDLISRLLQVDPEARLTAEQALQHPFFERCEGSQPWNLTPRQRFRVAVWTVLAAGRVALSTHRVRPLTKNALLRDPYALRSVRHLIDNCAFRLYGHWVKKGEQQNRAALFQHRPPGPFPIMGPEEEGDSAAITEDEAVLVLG

[5] = target: T3, Ras-related protein Rab-10 (Homo sapiens, UniProt P61026)
T3 sequence (P61026 whole entry): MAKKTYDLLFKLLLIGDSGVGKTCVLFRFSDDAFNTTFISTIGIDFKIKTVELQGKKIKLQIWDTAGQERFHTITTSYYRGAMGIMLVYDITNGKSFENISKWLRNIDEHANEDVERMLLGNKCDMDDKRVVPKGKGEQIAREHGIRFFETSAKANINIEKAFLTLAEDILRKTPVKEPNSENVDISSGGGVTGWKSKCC

[6] = target: T4, Exosome RNA helicase MTR4 (Homo sapiens, UniProt P42285)
T4 sequence (P42285 whole entry): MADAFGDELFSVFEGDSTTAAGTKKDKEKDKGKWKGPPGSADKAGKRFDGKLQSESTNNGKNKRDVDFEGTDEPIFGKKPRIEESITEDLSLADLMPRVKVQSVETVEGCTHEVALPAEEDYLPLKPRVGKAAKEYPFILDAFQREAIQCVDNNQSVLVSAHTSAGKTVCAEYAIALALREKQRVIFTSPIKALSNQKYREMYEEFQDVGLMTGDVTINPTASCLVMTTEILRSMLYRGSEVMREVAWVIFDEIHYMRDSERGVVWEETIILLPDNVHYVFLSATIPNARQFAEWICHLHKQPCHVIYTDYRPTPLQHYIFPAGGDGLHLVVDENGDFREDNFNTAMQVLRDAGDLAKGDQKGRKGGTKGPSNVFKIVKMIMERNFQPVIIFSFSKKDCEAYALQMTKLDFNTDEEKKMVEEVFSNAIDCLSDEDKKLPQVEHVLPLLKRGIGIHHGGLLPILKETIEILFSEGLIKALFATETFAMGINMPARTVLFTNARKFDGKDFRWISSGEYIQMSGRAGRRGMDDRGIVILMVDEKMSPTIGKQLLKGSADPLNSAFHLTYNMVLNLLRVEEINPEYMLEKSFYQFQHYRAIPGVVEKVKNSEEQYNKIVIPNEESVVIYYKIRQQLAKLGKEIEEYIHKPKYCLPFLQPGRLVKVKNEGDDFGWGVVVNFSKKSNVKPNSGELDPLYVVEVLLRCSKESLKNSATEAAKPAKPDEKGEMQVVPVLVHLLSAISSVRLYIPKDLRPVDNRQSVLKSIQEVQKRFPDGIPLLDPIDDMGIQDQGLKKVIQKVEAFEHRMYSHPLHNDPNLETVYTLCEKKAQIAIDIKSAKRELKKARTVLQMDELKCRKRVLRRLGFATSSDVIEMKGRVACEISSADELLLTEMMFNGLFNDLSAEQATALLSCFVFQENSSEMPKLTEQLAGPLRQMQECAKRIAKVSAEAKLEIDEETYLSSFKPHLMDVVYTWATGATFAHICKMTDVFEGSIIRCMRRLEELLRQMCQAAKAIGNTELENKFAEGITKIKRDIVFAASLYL

Activated CDC42 kinase 1 = Activated CDC42 kinase 1 (Homo sapiens, UniProt Q07912)
[7] = target: Elongation factor Tu, mitochondrial (Homo sapiens, UniProt P49411)
[8] = target: Mitogen-activated protein kinase kinase kinase 20 (Homo sapiens, UniProt Q9NYL2)
Also: in the data inactive means no Kd found up to 30 µM.

Tyrosine-protein kinase CSK, sequence (P41240 whole entry): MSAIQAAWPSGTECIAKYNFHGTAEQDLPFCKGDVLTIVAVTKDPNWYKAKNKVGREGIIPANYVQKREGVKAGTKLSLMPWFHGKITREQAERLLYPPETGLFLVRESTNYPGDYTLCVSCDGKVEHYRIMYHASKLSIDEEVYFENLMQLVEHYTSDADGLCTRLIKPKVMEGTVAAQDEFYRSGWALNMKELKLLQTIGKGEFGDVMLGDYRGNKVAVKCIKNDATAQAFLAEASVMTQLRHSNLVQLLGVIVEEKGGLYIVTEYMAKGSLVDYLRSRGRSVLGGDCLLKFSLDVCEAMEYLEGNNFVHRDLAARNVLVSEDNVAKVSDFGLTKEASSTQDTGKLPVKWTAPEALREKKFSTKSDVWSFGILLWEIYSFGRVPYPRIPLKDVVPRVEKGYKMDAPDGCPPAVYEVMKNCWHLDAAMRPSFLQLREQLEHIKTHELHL
Mitogen-activated protein kinase kinase kinase 20, sequence (Q9NYL2 whole entry): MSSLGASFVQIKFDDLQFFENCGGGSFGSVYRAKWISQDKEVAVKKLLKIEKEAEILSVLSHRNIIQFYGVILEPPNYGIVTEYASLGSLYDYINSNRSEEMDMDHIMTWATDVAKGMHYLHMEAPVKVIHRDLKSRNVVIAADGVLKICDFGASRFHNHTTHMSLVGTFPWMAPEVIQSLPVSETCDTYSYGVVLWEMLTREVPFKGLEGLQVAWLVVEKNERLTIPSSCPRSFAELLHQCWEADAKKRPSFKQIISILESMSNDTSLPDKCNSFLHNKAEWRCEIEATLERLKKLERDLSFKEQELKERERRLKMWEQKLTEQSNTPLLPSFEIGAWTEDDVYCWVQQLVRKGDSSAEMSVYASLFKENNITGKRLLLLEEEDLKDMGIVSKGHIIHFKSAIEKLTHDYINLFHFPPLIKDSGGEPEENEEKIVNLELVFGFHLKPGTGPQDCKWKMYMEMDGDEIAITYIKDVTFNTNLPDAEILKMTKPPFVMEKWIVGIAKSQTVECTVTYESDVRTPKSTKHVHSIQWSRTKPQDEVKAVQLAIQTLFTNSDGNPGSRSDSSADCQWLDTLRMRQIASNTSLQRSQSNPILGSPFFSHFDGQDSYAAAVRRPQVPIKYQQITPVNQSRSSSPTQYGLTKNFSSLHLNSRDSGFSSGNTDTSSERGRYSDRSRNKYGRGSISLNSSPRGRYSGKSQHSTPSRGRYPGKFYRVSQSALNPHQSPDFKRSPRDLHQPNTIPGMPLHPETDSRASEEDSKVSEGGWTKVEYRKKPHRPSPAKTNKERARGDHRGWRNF
Calcium/calmodulin-dependent protein kinase type II subunit delta, sequence (Q13557 whole entry): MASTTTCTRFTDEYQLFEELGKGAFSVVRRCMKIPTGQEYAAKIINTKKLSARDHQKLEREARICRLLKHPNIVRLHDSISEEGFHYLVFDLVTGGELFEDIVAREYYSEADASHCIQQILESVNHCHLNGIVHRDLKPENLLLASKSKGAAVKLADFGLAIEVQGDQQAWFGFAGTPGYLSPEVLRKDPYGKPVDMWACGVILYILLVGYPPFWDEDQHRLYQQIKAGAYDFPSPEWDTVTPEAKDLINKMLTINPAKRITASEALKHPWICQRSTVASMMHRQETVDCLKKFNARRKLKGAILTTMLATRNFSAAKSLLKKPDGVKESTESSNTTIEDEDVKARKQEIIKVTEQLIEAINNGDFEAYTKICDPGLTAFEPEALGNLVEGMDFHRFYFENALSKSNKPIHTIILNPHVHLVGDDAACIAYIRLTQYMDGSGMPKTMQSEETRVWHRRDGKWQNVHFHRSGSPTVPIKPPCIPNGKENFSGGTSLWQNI
Activated CDC42 kinase 1, sequence (Q07912 whole entry): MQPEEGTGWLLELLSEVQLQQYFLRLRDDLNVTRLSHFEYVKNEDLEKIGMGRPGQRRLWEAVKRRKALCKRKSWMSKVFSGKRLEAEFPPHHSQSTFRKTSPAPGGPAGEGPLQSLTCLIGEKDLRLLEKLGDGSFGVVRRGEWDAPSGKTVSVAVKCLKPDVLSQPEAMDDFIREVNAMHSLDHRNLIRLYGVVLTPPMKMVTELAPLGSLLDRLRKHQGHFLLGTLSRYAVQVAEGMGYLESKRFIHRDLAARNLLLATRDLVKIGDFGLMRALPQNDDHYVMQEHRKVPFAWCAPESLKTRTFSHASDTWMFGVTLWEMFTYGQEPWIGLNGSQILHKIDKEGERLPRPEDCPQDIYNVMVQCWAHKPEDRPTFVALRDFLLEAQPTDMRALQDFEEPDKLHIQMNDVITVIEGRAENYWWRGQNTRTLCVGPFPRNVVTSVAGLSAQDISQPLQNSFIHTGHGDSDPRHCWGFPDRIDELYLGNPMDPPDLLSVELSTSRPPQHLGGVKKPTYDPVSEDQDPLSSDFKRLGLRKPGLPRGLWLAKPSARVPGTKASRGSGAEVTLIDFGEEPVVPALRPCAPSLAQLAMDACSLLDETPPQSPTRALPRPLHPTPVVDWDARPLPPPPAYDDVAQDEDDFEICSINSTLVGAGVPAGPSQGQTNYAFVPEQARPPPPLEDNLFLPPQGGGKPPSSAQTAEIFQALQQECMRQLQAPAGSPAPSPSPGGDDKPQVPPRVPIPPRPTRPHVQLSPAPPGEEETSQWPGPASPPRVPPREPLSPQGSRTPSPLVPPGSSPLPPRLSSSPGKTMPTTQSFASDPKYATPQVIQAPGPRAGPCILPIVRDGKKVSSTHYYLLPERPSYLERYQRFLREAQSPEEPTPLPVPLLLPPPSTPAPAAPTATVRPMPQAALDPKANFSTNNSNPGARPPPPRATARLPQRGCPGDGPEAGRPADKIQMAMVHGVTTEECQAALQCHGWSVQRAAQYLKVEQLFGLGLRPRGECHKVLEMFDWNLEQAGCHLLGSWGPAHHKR

| SMILES | Kd [1] | Kd [2] | Kd [3] | Kd (GTP-binding protein 4) | Kd [4] | Kd [5] | Kd [6] | Kd (Activated CDC42 kinase 1) | Kd [7] | Kd [8] |
| --- | --- | --- | --- | --- | --- | --- | --- | --- | --- | --- |
| O=c1sn(-c2cccc3ccccc23)c(=O)n1Cc1ccccc1 [TIDEGLUSIB] | > 30 µM (inactive) | > 30 µM (inactive) | > 30 µM (inactive) | > 30 µM (inactive) | > 30 µM (inactive) | > 30 µM (inactive) | > 30 µM (inactive) | > 30 µM (inactive) | > 30 µM (inactive) | > 30 µM (inactive) |
| Cn1cc(-c2ccc3nnc(C(F)(F)c4ccc5ncccc5c4)n3n2)cn1 [JNJ-38877605] | > 30 µM (inactive) | > 30 µM (inactive) | > 30 µM (inactive) | > 30 µM (inactive) | > 30 µM (inactive) | > 30 µM (inactive) | > 30 µM (inactive) | > 30 µM (inactive) | > 30 µM (inactive) | > 30 µM (inactive) |
| Cn1ncc(Cl)c1-c1cc(C(=O)N[C@H](CN)Cc2cccc(F)c2)sc1Cl [AFURESERTIB] | > 30 µM (inactive) | > 30 µM (inactive) | > 30 µM (inactive) | > 30 µM (inactive) | > 30 µM (inactive) | > 30 µM (inactive) | > 30 µM (inactive) | > 30 µM (inactive) | > 30 µM (inactive) | > 30 µM (inactive) |
| CNS(=O)(=O)Nc1nccc(Cc2c(C)c3ccc(Oc4ncccn4)cc3oc2=O)c1F [AVUTOMETINIB] | > 30 µM (inactive) | > 30 µM (inactive) | > 30 µM (inactive) | > 30 µM (inactive) | > 30 µM (inactive) | > 30 µM (inactive) | > 30 µM (inactive) | > 30 µM (inactive) | > 30 µM (inactive) | > 30 µM (inactive) |
| CN(C)C(=O)c1cc2cnc(Nc3ccc(N4CCNCC4)cn3)nc2n1C1CCCC1 [RIBOCICLIB] | > 30 µM (inactive) | 0.293 µM (active) | > 30 µM (inactive) | > 30 µM (inactive) | > 30 µM (inactive) | > 30 µM (inactive) | > 30 µM (inactive) | > 30 µM (inactive) | > 30 µM (inactive) | > 30 µM (inactive) |
| COc1ccc(-c2ccc3c(N4CCOC[C@@H]4C)nc(N4CCOC[C@@H]4C)nc3n2)cc1CO [AZD-8055] | > 30 µM (inactive) | > 30 µM (inactive) | > 30 µM (inactive) | > 30 µM (inactive) | > 30 µM (inactive) | > 30 µM (inactive) | > 30 µM (inactive) | > 30 µM (inactive) | > 30 µM (inactive) | > 30 µM (inactive) |
| C[C@@H](Nc1cc(F)cc(F)c1)c1cc(C(=O)N(C)C)cc2c(=O)cc(N3CCOCC3)oc12 [AZD-8186] | > 30 µM (inactive) | > 30 µM (inactive) | > 30 µM (inactive) |  | > 30 µM (inactive) | > 30 µM (inactive) | > 30 µM (inactive) | > 30 µM (inactive) | > 30 µM (inactive) | > 30 µM (inactive) |
| CNC(=O)CN1CCC(Oc2cc3c(Nc4cccc(Cl)c4F)ncnc3cc2OC)CC1 [SAPITINIB] | > 30 µM (inactive) | > 30 µM (inactive) | > 30 µM (inactive) | > 30 µM (inactive) | > 30 µM (inactive) | > 30 µM (inactive) | > 30 µM (inactive) | > 30 µM (inactive) | > 30 µM (inactive) | > 30 µM (inactive) |
| CNC(=O)c1ccc(-c2cnc3ncc(Cc4ccc5ncccc5c4)n3n2)cc1F [CAPMATINIB] | > 30 µM (inactive) | > 30 µM (inactive) | > 30 µM (inactive) | > 30 µM (inactive) | > 30 µM (inactive) |  | > 30 µM (inactive) | > 30 µM (inactive) | > 30 µM (inactive) | > 30 µM (inactive) |
| CCn1c(=O)c(-c2cc[nH]n2)cc2c(C)nc(N)nc21 [VOXTALISIB] | > 30 µM (inactive) | > 30 µM (inactive) | > 30 µM (inactive) |  | > 30 µM (inactive) | > 30 µM (inactive) | > 30 µM (inactive) | > 30 µM (inactive) | > 30 µM (inactive) | > 30 µM (inactive) |
